Columns and labels:
[1] = tested on: MDA-MB-468; assay: NCI SRB screen, MDA-MB-468; conditions: Homo sapiens, MDA-MB-468, read-out: GI50 values
[2] = tested on: UACC-254; assay: NCI SRB screen, UACC-254; conditions: Homo sapiens, read-out: GI50 values

SMILES	GI50 [1] [nM]	GI50 [2] [nM]
COc1ccc2[nH]c(-c3cc(-c4cc(OC)c(OC)c(OC)c4)n[nH]3)nc2c1 [9f, 5-methoxy-2-(3-(3,4,5-trimethoxyphenyl)-1H-pyrazol-5-yl)-1H-benzo[d]imidazole]	380	
Fc1ccc2[nH]c(-c3cc(-c4ccc5c(c4)OCO5)n[nH]3)nc2c1 [7g, 2-(3-(benzo[d][1,3]dioxol-5-yl)-1H-pyrazol-5-yl)-5-fluoro-1H-benzo[d]imidazole]		1020
